Among the data in patent US20250026734A1 (priority 2021, published 2025) are EC50 values, retold here.

For the test, the system named is SARS-CoV-2 strains. It counts as cell-based.

The term EC50 denotes the midpoint of the concentration-response curve.

The structures appear in SMILES notation. Where “and” joins values, the source holds several entries; their conditions need not be identical. Identical values can stand only once. Like-named read-outs stand apart in the source and are kept apart here.

For `CCCCn1c(=O)c2ccc(NCCO)cc2c2cc(C(O)(C(F)(F)F)C(F)(F)F)ccc21` [NR-31], the EC50 was 5.12 µM and 3.47 µM and 3.53 µM and 5.28 µM and 3.37 µM and 4.07 µM and 3.62 µM (read-out: EC50); 4.4 µM (read-out: EC50 (inhibits cell death induced by SARS-CoV-2 infection by 50%)).
